Experimental data: PubChem BioAssay AID2060599 (Molecular Pharmacology Branch, DTP, NCI, 2025)
Where “and” joins values, the source holds several entries; their conditions need not be identical. Equal entries are not always repeated.

System: 817829-284-R-J1-PDC complex spheroids, viability
Assay: Anticancer human tumor 817829-284-R-J1-PDC patient-derived colon adenocarcinoma cell line growth inhibition [CLK]
Conditions: for viability, T/C: stronger effect = lower value; active = viability on the fitted dose curve at most 10% of control; inactive = the rest
Summary of the method: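 Multi-cell-type spheroids combined patient-derived tumor cells with HUVEC endothelial cells and human mesenchymal stem cells. Paired agents were dosed in half-log steps down from about clinical Cmax, or from 10 microM where Cmax was unknown.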

[1] = curve of first compound, second compound 0.0316 µM
[2] = curve of first compound, second compound 0.1 µM
[3] = curve of first compound, second compound 0.316 µM
[4] = curve of first compound, second compound 1 µM
[5] = curve of first compound, second compound 3.16 µM
[6] = curve of first compound, second compound 10 µM
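Note: spheroids exposed to the agents for seven days before readout.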

COc1c(OCCCN2CCOCC2)ccc2c3n(c(=NC(=O)c4cnc(N)nc4)nc12)CCN3 + CN1CCN(c2cc(C(=O)Nc3cc4cc(-c5cnn(C)c5)ccc4cn3)ccn2)CC1
inactive: viability, T/C (second compound 0.0316 µM, first compound 0.00316 µM) 52.3% | viability, T/C (second compound 0.0316 µM, first compound 0.01 µM) 51.3% | viability, T/C (second compound 0.0316 µM, first compound 0.0316 µM) 33.9% | viability, T/C (second compound 0.0316 µM, first compound 0.1 µM) 13.7% | viability, T/C (second compound 0.1 µM, first compound 0.00316 µM) 20.9% | viability, T/C (second compound 0.1 µM, first compound 0.01 µM) 17.7% | viability, T/C (second compound 0.1 µM, first compound 0.0316 µM) 11.5%
< 3.16 nM: IC50 [2] | IC50 [3] | IC50 [4] | IC50 [5] | IC50 [6]
8.9 nM: IC50 [1]
active: viability, T/C (second compound 0.0316 µM, first compound 0.316 µM) 3.82% | viability, T/C (second compound 0.0316 µM, first compound 1 µM) 1.54% | viability, T/C (second compound 0.1 µM, first compound 0.1 µM) 6.91% | viability, T/C (second compound 0.1 µM, first compound 0.316 µM) 1.95% | viability, T/C (second compound 0.1 µM, first compound 1 µM) 1.19% | viability, T/C (second compound 0.316 µM, first compound 0.00316 µM) 1.52% | viability, T/C (second compound 0.316 µM, first compound 0.01 µM) 1.2% | viability, T/C (second compound 0.316 µM, first compound 0.0316 µM) 0.85% | viability, T/C (second compound 0.316 µM, first compound 0.1 µM) 0.73% | viability, T/C (second compound 0.316 µM, first compound 0.316 µM) 0.56% | viability, T/C (second compound 0.316 µM, first compound 1 µM) 0.47% | viability, T/C (second compound 1 µM, first compound 0.00316 µM) 0.08% | viability, T/C (second compound 1 µM, first compound 0.01 µM) 0.11% | viability, T/C (second compound 1 µM, first compound 0.0316 µM) 0.12% | viability, T/C (second compound 1 µM, first compound 0.1 µM) 0.12% | viability, T/C (second compound 1 µM, first compound 0.316 µM) 0.11% | viability, T/C (second compound 1 µM, first compound 1 µM) 0.34% | viability, T/C (second compound 3.16 µM, first compound 0.00316 µM) 0.17% | viability, T/C (second compound 3.16 µM, first compound 0.01 µM) 0.13% | viability, T/C (second compound 3.16 µM, first compound 0.0316 µM) 0.13% | viability, T/C (second compound 3.16 µM, first compound 0.1 µM) 0.09% | viability, T/C (second compound 3.16 µM, first compound 0.316 µM) 0.17% | viability, T/C (second compound 3.16 µM, first compound 1 µM) 0.17% | viability, T/C (second compound 10 µM, first compound 0.00316 µM) 0.03% | viability, T/C (second compound 10 µM, first compound 0.01 µM) 0.06% | viability, T/C (second compound 10 µM, first compound 0.0316 µM) 0.1% | viability, T/C (second compound 10 µM, first compound 0.1 µM) 0.56% | viability, T/C (second compound 10 µM, first compound 0.316 µM) 0.13% | viability, T/C (second compound 10 µM, first compound 1 µM) 0.12%

CC(=O)O[C@H]1C(=O)[C@@]2(C)[C@H]([C@H](OC(=O)c3ccccc3)[C@]3(O)C[C@H](OC(=O)[C@H](O)[C@@H](NC(=O)c4ccccc4)c4ccccc4)C(C)=C1C3(C)C)[C@]1(OC(C)=O)CO[C@@H]1C[C@@H]2O
< 31.6 nM: IC50 (curve of compound)
active: viability, T/C (compound 0.0316 µM) 5.82% and 6.97% | viability, T/C (compound 0.1 µM) 4.87% and 7.28% | viability, T/C (compound 0.316 µM) 5.22% and 6.91% | viability, T/C (compound 1 µM) 5.4% and 7.87% | viability, T/C (compound 3.16 µM) 6.88% and 8.37% | viability, T/C (compound 10 µM) 6.36% and 7.7%

CN1CCN(c2cc(C(=O)Nc3cc4cc(-c5cnn(C)c5)ccc4cn3)ccn2)CC1
49.5 nM [middle of 12 runs]: IC50 (compound alone, run of 08/14/2023)
active: viability, T/C (compound 0.316 µM) 2.17% [middle of 12 runs] | viability, T/C (compound 1 µM) 0.13% [middle of 8 runs] | viability, T/C (compound 3.16 µM) 0.17% [middle of 7 runs] | viability, T/C (compound 10 µM) 0.13% [middle of 8 runs]
inactive: viability, T/C (compound 0.0316 µM) 70.5% [middle of 12 runs] | viability, T/C (compound 0.1 µM) 20% [middle of 12 runs]

C=CC(=O)Nc1cc(Nc2nccc(-c3cn(C)c4ccccc34)n2)c(OC)cc1N(C)CCN(C)C + CN1CCN(c2cc(C(=O)Nc3cc4cc(-c5cnn(C)c5)ccc4cn3)ccn2)CC1
active: viability, T/C (second compound 0.316 µM, first compound 0.000949 µM) 1.39% | viability, T/C (second compound 0.316 µM, first compound 0.003 µM) 1.52% | viability, T/C (second compound 0.316 µM, first compound 0.00949 µM) 1.82% | viability, T/C (second compound 0.316 µM, first compound 0.03 µM) 1.58% | viability, T/C (second compound 0.316 µM, first compound 0.0949 µM) 1.13% | viability, T/C (second compound 0.316 µM, first compound 0.3 µM) 0.72% | viability, T/C (second compound 1 µM, first compound 0.000949 µM) 0.08% | viability, T/C (second compound 1 µM, first compound 0.003 µM) 0.12% | viability, T/C (second compound 1 µM, first compound 0.00949 µM) 0.1% | viability, T/C (second compound 1 µM, first compound 0.03 µM) 0.09% | viability, T/C (second compound 1 µM, first compound 0.0949 µM) 0.17% | viability, T/C (second compound 1 µM, first compound 0.3 µM) 0.09% | viability, T/C (second compound 3.16 µM, first compound 0.000949 µM) 0.14% | viability, T/C (second compound 3.16 µM, first compound 0.003 µM) 0.16% | viability, T/C (second compound 3.16 µM, first compound 0.00949 µM) 0.18% | viability, T/C (second compound 3.16 µM, first compound 0.03 µM) 0.12% | viability, T/C (second compound 3.16 µM, first compound 0.0949 µM) 0.1% | viability, T/C (second compound 3.16 µM, first compound 0.3 µM) 0.1% | viability, T/C (second compound 10 µM, first compound 0.000949 µM) 0.14% | viability, T/C (second compound 10 µM, first compound 0.003 µM) 0.13% | viability, T/C (second compound 10 µM, first compound 0.00949 µM) 0.13% | viability, T/C (second compound 10 µM, first compound 0.03 µM) 0.13% | viability, T/C (second compound 10 µM, first compound 0.0949 µM) 0.15% | viability, T/C (second compound 10 µM, first compound 0.3 µM) 0.13%
> 300 nM: IC50 [1]
inactive: viability, T/C (second compound 0.0316 µM, first compound 0.000949 µM) 51.7% | viability, T/C (second compound 0.0316 µM, first compound 0.003 µM) 48.2% | viability, T/C (second compound 0.0316 µM, first compound 0.00949 µM) 57.6% | viability, T/C (second compound 0.0316 µM, first compound 0.03 µM) 58.5% | viability, T/C (second compound 0.0316 µM, first compound 0.0949 µM) 67.9% | viability, T/C (second compound 0.0316 µM, first compound 0.3 µM) 41.1% | viability, T/C (second compound 0.1 µM, first compound 0.000949 µM) 16.4% | viability, T/C (second compound 0.1 µM, first compound 0.003 µM) 17.8% | viability, T/C (second compound 0.1 µM, first compound 0.00949 µM) 16.3% | viability, T/C (second compound 0.1 µM, first compound 0.03 µM) 19.6% | viability, T/C (second compound 0.1 µM, first compound 0.0949 µM) 14.4% | viability, T/C (second compound 0.1 µM, first compound 0.3 µM) 10.9%
< 0.949 nM: IC50 [2] | IC50 [3] | IC50 [4] | IC50 [5] | IC50 [6]
